Reference: ChEMBL document CHEMBL1149376, “Sulfamoyl-4-oxoquinoline-3-carboxamides: novel potentiators of defective DeltaF508-cystic fibrosis transmembrane conductance regulator chloride channel gating” (Bioorg Med Chem Lett, 2006)

Target: Cystic fibrosis transmembrane conductance regulator (Homo sapiens) (UniProt P13569)
Assay: Potentiation of deltaF508 mutated CFTR dependent iodide influx at 0.1 uM
Format: functional

Chain of Cystic fibrosis transmembrane conductance regulator (Homo sapiens) (P13569 whole entry, looked up): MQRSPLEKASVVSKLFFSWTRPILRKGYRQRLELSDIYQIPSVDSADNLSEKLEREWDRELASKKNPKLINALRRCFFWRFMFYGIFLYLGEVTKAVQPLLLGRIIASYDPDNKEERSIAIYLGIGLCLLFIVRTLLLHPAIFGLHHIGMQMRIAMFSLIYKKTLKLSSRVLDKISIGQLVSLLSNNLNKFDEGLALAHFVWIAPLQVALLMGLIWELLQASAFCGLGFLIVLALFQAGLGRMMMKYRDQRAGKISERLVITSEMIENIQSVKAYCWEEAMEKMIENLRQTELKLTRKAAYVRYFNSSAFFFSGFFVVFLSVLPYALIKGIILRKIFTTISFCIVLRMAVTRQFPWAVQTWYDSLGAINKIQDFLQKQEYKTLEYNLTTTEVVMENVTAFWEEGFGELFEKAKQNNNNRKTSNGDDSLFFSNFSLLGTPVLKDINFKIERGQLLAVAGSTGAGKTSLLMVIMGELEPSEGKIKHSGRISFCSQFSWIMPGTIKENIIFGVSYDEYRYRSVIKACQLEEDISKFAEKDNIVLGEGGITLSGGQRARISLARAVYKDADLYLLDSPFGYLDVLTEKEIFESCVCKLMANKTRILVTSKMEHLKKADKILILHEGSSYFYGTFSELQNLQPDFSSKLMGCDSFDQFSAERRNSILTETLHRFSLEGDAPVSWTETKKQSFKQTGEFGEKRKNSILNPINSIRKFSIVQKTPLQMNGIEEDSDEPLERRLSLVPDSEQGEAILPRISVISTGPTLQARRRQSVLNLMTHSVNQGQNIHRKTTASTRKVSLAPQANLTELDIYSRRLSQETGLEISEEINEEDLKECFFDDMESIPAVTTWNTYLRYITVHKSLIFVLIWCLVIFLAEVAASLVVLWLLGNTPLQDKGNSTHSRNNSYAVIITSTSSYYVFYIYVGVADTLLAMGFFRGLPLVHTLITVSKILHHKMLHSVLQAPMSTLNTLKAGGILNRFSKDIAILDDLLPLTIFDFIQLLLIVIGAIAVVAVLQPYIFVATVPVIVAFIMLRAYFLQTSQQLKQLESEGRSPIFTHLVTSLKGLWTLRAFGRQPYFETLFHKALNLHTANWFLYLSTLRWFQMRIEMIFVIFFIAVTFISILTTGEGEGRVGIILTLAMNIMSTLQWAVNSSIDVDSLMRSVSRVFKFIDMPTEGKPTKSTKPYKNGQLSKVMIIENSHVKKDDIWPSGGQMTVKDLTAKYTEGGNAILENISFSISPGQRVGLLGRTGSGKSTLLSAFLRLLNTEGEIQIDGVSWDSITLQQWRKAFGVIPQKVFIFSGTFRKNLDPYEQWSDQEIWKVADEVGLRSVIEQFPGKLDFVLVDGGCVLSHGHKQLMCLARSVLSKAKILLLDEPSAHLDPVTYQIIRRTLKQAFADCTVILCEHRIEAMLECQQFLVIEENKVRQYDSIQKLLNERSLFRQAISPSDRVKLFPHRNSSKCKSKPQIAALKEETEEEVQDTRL

Activity: 50%
SMILES: CCN(c1ccccc1)S(=O)(=O)c1ccc2ncc(C(=O)NCc3ccccc3OC)c(O)c2c1
